This is an account of results in PMC5595280, “Cytotoxicity and anti-tumor effects of new ruthenium complexes on triple negative breast cancer cells” (PLoS ONE, 2017).

For data set [1], the system named is MDA-MB-231 cells. Put plainly: Phalloidin staining of F-actin cytoskeleton. The format is cell-based, human. Particulars: 30 min. The method, then: To examine the effects of complex (4) on the F-actin cytoskeleton organization in MDA-MB-231 cells, Alexa Fluor® 488 Phalloidin was used to stain the F-actin fibers. MDA-MB-231 cells (5x10^4 cells/100 μL) were plated in 96-well plates and maintained at 37°C in a humidified incubator with 5% CO2 for 24 h. In the next day, cells were treated with 10, 20, 40 μM of complex (4) and incubated for 30 min. Next, cells were washed with PBS, fixed with 3.7% paraformaldehyde in PBS for 30 min and then permeabilized with 0.1% Triton-X 100 in PBS for 5min at room temperature. Blocking was performed with 2% BSA for 30 min, followed by the addition of Alexa Fluor 488 Phalloidin for 20 min. Cells were then stained with DAPI for nuclear labeling for 10min and finally washed again with PBS for three times. Images were obtained with an automated microscope ImageXpress® Micro XLS System (Molecular Devices).

The test system of data set [2] is MDA-MB-231 cells. Description: Wound healing migration assay. The format is cell-based, human. Particulars: 5, 10 and 20 μM, 24 and 48 h. The method, then:
The effects of complex (4) on tumor cell migration was investigated by two methods, wound healing and transwell assays using Boyden chambers. For wound healing, MDA-MB-231 cells (2 x10^5/mL) were plated in 12-wells plates and incubated properly until the culture reached 100% of confluence. Afterwards, a straight scratch was made with a sterile pipette tip and cells were washed with culture medium to remove unbound cells and debris. Cells were incubated with complex (4) 5, 10 and 20 μM for 24 and 48 h. Cells were viewed using an inverted microscope (Nikon, T5100) at 40× total magnification and images were captured (Moticam, 1000-S camera) at 0 h, 24 h and 48 h. Closure area of migrating cells was measured using Image J software, and the percentage of wound closure was calculated, comparing time zero and 48 h, using a formula from Yue and co-workers.
% wound closure=(At=0h−At=Δh)/(At=0h)x (100)

Data set [3] relates to MDA-MB-231 cells. Description: Cell morphology (inverted microscope). It is filed as cell-based, human. Particulars: MDA-MB-231, 50 μM, 24 h. Here is the method: (§1) Exponentially growing MDA-MB-231, MCF-7 or MCF-10A cells were harvested, counted and seeded (1x10^5 cells/mL) and plated on sterile 12-well plates for 24 h. Cells were allowed to grow at 37°C in 5% CO2 overnight and then, treated or not (control) with different concentrations of the complexes (1–4) for 2 and 24 h. Cell morphology was examined under an inverted microscope (Nikon, T5100) with amplification of 100×.
(§2) In this work the cytotoxicity of the complexes was evaluated against the MDA-MB-231, MCF-7 and MCF-10A cells by morphology, clonogenic and MTT assays (Fig 2, Table 1). To investigate the effects on cell morphology, the complexes were incubated with cells at concentrations of 25 and 50 μM for 24 h.

Data set [4] relates to MCF-10A cells. Put plainly: Cell morphology (inverted microscope). It is filed as cell-based, human. Particulars: 50 μM, 24 h. The method, then: as §1, §2
In data set [5] the test system is MDA-MB-231 cells. Put plainly: DAPI staining for nuclear fragmentation. The format is cell-based, human. The conditions noted are these: 60 and 70 μM, 3 h. The method, then: The apoptotic activity of the complex (4) was analyzed by DAPI staining and flow cytometry with PE-Annexin-V Apoptosis Detection Kit (BD Biosciences). For DAPI staining, MDA-MB-231 cells (2.0 x 10^4/100 μL) were seeded in 96-wells plates and maintained at 37°C in a humidified incubator with 5% CO2 for 24 h. In the next day, cells were treated with 60 and 70 μM of complex (4) and incubated for 3 h. Next, cells were washed with PBS, fixed with methanol and stained with DAPI 1 μg/mL (Life Technologies, Carlsbad, CA) in DMEM medium without FBS for 10 min. Fluorescence was captured in automated microscope ImageXpress® Micro XLS System (Molecular Devices).

The nature of data set [6]: Water-octanol partition coefficient (stir-flask method). It is filed as physicochemical. Particulars: 24 h shaking, 37°C. Here is the method: The water-octanol partition coefficients were determined by use of the stir-flask method. The complex was added in a mixture with equal volumes of water and octanol shaking by 24 h at 100 rpm and 37°C, samples were centrifuged for 5min at 300rpm, the organic and aqueous phases were separated. The concentration of drug in each phase was measured spectrophotometrically in order to determine values of P = [drug] (in octanol)/[drug] (in water).

The subject of data set [7] is MDA-MB-231 cells. Description: Cell adhesion to ECM proteins. The format is cell-based, human. Here is the method: The effects of complex (4) on the adhesion of MDA-MB-231 cells were analyzed in 96-well plates (Corning) as described earlier. Vitronectin (1.0 μg), laminin (0.3 μg) or fibronectin (0.3 μg) immobilized on the plates in a cell adhesion buffer (20 mM HEPES, 150 mM NaCl, 5 mM KCl, 1 mM MgSO4 and 1 mM MnCl2 pH 7.35), overnight at 4°C. Collagen type I (10 μg) was dissolved in acetic acid (0.1%) and coated on the wells. On the next day, wells were blocked with adhesion buffer containing 1% BSA solution for 1h and then washed with 100 μL per well of adhesion buffer. Cells (5 x 10^4/100 μL) were incubated for 30 min with different concentrations of the complex (4) at 37°C 5% CO2 and then plated and incubated under the same conditions for a further 1h. Then the non-adhered cells were gently removed by washing and attached cells were fixed with 100 μL 70% ethanol for 10 min. Cells were stained with 0.5% crystal violet for 20min and the excess dye was removed by washing with PBS. The stained cells were diluted in 100 μL of 1% solution of sodium dodecyl sulfate (SDS) for 30min and reading of the plates was performed on ELISA reader at 595 nm wavelength.

Data set [8] deals with MMP-9. Description: Gelatin zymography of wound healing supernatants. The format is cell-based, human. The conditions noted are these: 24 h. Here is the method: MDA-MB-231 cells (1.0 x 10^5/well) were seeded into 12-wells culture plates and cultured in a medium containing FBS 10% to near confluence (80%) of the cell monolayer. Monolayers were carefully wounded using a pipette tip, and any cellular debris present was removed by washing with PBS. The wounded monolayers were then incubated in serum-free medium containing 2.5, 5, 10 and 20 μM of complex (4) for 24 h. After this time, supernatants of the wound healing assay were collected and tested for MMP secretion as previously described. Briefly, equal amounts of total protein ([…]) were subjected to electrophoresis. Zymography gels consisted of 10% polyacrylamide impregnated with gelatin at a final concentration of 1% in the presence of sodium dodecyl sulfate (SDS) under non-reducing conditions. […] Gels were then stained with coomassie brilliant blue for 30 min and destained in methanol and acetic acid for 20 min. Gelatin degrading enzymes were visualized as clear white bands against a blue background, indicating proteolysis of the substrate protein. The molecular mass of gelatinolytic activities was determined by comparison to reference protein molecular mass marker PageRuler Prestained Protein Ladder (Thermo Fisher Scientific). Activity bands were identified following the previous description according to their molecular weights.

In the case of `CC(=O)[O-].F[P-](F)(F)(F)(F)F.[Ru+2].c1ccc(-c2ccccn2)nc1.c1ccc(P(CCCCP(c2ccccc2)c2ccccc2)c2ccccc2)cc1` [Complex (4), [Ru(CH3CO2)(dppb)(bipy)]PF6], in data set [1] (10, 20 and 40 μM), the “effect on actin cytoskeleton structure” value is “strongly modified the structure of the actin cytoskeleton”. Moreover, in data set [1] (20 and 40 μM), the “effect on cytoskeleton density” value is given as “decrease in cytoskeleton density”. For the same compound, in data set [2], the “effect on cell migration (wound healing)” value was “inhibited MDA-MB-231 cell migration in a concentration dependent fashion”. Further, the “effect on cell morphology” value in data set [3] was “profoundly altered their morphology”. For the same compound, the “effect on cell morphology / cell density” value in data set [4] is “profoundly altered their morphology”. Also, the “apoptotic nuclei (DAPI)” value in data set [5] was “more apoptotic nucleic”. In addition, the “Log P” value in data set [6] was determined as 0.77 ± 0.03. Further, in data set [7] (20 μM), the “inhibition of cell adhesion to type I collagen” value was “approximately 35%”. For the same compound, in data set [7] (40 μM), the “inhibition of cell adhesion to fibronectin, laminin and vitronectin” value is listed as “about 65%”; the “inhibition of cell adhesion to type I collagen” value is approximately 50%. In addition, the “effect on cell adhesion to fibronectin, laminin and vitronectin” value in data set [7] (all concentrations tested) is recorded as “inhibited cell adhesion”. In data set [8] (20 μM), the “inhibition of expression of MMP-9 compared to untreated control” value was found to be 60%. Besides, in data set [8] (2.5, 5 and 10 μM), the “effect on expression of MMP-9” value was “did not inhibit the expression of MMP-9”.

One may read the Log P as a log measure of how a compound divides between an organic and an aqueous phase. A low value points to a more hydrophilic compound.
